The values that follow come from publication PMC11411213 (Journal of Molecular Cell Biology, 2024).

What all share (type): cell-based
The subject of test [1] is SARS-CoV-2 Delta variant. Description: microbe, parasite or virus in culture.
Test [2] has as its system SARS-CoV-2 D614G variant.
Test [3] concerns SARS-CoV-2 Alpha variant. Kind of test: microbe, parasite or virus in culture.
Test [4] deals with SARS-CoV-2 Wuhan variant. Description: microbe, parasite or virus in culture.
In test [5] the test system is SARS-CoV-2 Omicron variant.
Test [6] relates to SARS-CoV-2 Wuhan variant.
[7] abbreviates: Severe acute respiratory syndrome coronavirus 2, Calu-3.

Where two headings read alike, the source gives them in different places.

The term IC50 denotes the point on the concentration scale where inhibition reaches its midpoint. With `O=C(O)c1cc(/N=N/c2ccc(S(=O)(=O)Nc3ccccn3)cc2)ccc1O` [Sulfasalazine], the entries for the “SI (selectivity index)” value in test [1], in test [3] and in test [4] were greater than 20.82, greater than 23.87 and greater than 20.51, respectively. Moreover, the IC50 in test [1] (setting [7]) worked out at 24 ± 3.2 µM; in test [2], 20.1 ± 2.07 µM; in test [3] (setting [7]), 20.9 ± 4.23 µM; in test [4] (setting [7]) it was 24.4 ± 5.37 µM.

On to `N[C@@H](CCC(=O)N[C@@H](CS)C(=O)NCC(=O)O)C(=O)O` [GSH, glutathione], for which the “antiviral activity after a single replication cycle (viral titre, in words)” value (from here on “antiviral activity”) in test [5] is listed as “effective against the Omicron variant”; in test [6], “strong antiviral activity”.

Consider imidazole ketone erastin [IKE], for which the “antiviral activity” value is “effective against the Omicron variant” in test [5] and “strong antiviral activity” in test [6]. In addition, the IC50 was found to be 0.113 ± 0.00371 µM in test [1] (read-out: IC50), 0.0885 ± 0.105 µM in test [2], 0.0799 ± 0.00411 µM in test [3] (read-out: IC50) and 0.099 ± 0.00812 µM in test [4] (read-out: IC50).

Take `COc1cc2c(Nc3ccc(Br)cc3F)ncnc2cc1OCC1CCN(C)CC1` [Vandetanib]: the “SI (selectivity index)” value in test [1] is 72.91; in test [3] it was 123.55; in test [4], 96.46. For the same molecule, the IC50 in test [1] (setting [7]) stood at 0.0515 ± 0.00555 µM; in test [2], 0.0334 ± 0.00272 µM; in test [3] (setting [7]), 0.0304 ± 0.00154 µM; in test [4] (setting [7]), 0.0389 ± 0.0024 µM.

With N-acetyl cysteine [NAC], the “antiviral activity” value in test [5] is on record as “effective against the Omicron variant”; in test [6], “strong antiviral activity”. Moreover, the IC50 in test [4] (read-out: IC50) was 549 µM.

With `COc1cc(Nc2ncc(F)c(Nc3ccc4c(n3)NC(=O)C(C)(C)O4)n2)cc(OC)c1OC` [Tamatinib], the “SI (selectivity index)” value in test [1] worked out at 57.84; in test [3], 69.20. Moreover, the IC50 in test [1] (setting [7]) came to 0.0992 ± 0.0014 µM; in test [2], 0.115 ± 0.00677 µM; in test [3] (setting [7]), 0.08295 ± 0.00068 µM; in test [4] (setting [7]), 0.103 ± 0.0027 µM.

Consider MKI-1, for which the IC50 in test [1] (read-out: IC50) was determined as 0.0484 ± 0.00207 µM; in test [2], 0.0464 ± 0.00082 µM; in test [3] (read-out: IC50) it was 0.0317 ± 0.00418 µM; in test [4] (read-out: IC50) it was 0.0465 ± 0.0018 µM.
